Source: ChEMBL document CHEMBL1201862, “PubChem BioAssay data set” (2004)
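Dose response: 5 concentrations. Exposure: 48 h. Format: 96-well plates. Endpoint: linear interpolation; highest concentration if not reached. GI50 marks 50% less growth.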 Calls of active or inactive are those of the source. Cut-off read from the data, not from the text of the source: active = GI50 up to about 1.1 µM and inactive = higher.

Key:
Assay in all cases: NCI tumour cell line growth inhibition, 48 h
PC-3 = test system: PC-3
TK-10 = test system: TK-10
SF-539 = test system: SF-539
MDA-MB-231 = test system: MDA-MB-231
CAKI-1 = test system: CAKI-1
NCI/ADR-RES = test system: NCI/ADR-RES
SW-620 = test system: SW-620
OVCAR-5 = test system: OVCAR-5
DMS-273 = test system: DMS-273
LXFL 529 = test system: LXFL 529
IGROV-1 = test system: IGROV-1
M19-MEL = test system: M19-MEL
KM12 = test system: KM12
NCI-H23 = test system: NCI-H23
K562 = test system: K562
DU-145 = test system: DU-145
RXF 393 = test system: RXF 393
MDA-MB-435 = test system: MDA-MB-435
SF-268 = test system: SF-268
OVCAR-3 = test system: OVCAR-3

Measured: GI50

Oc1cc(-n2cccn2)c(O)cc1-n1cccn1
inactive: PC-3 21.6 µM | TK-10 26.8 µM | SF-539 62.1 µM | MDA-MB-231 21.9 µM | CAKI-1 23.6 µM | NCI/ADR-RES 29.4 µM | SW-620 19.1 µM | OVCAR-5 53.1 µM | DMS-273 41.3 µM | LXFL 529 19.4 µM | IGROV-1 54.6 µM | M19-MEL 23.7 µM | KM12 57.7 µM | NCI-H23 43.7 µM | K562 11.2 µM | DU-145 > 48.2 µM | RXF 393 16.7 µM | MDA-MB-435 17.5 µM | SF-268 55.7 µM | OVCAR-3 19.1 µM

COc1ccc2[nH]c3c4c(ccc3c2c1)C(=O)C=CC4=O
inactive: PC-3 18.7 µM | TK-10 14.6 µM | SF-539 15.7 µM | MDA-MB-231 17.4 µM | CAKI-1 9.25 µM | SW-620 2.39 µM | OVCAR-5 20.4 µM | DMS-273 16.2 µM | LXFL 529 5.02 µM | IGROV-1 16 µM | M19-MEL 14.3 µM | KM12 21.6 µM | NCI-H23 12.7 µM | K562 1.53 µM | DU-145 34.8 µM | RXF 393 2.48 µM | MDA-MB-435 25.9 µM | SF-268 17.1 µM | OVCAR-3 8.36 µM

CCC/C(=N\NC(=O)c1cc2ccccc2cc1O)C(CC)C(=O)CCC(=O)N(Cc1ccccc1)Cc1ccccc1 (stereo not drawn)
inactive: TK-10 > 100 µM | SF-539 48.1 µM | CAKI-1 46 µM | SW-620 64 µM | OVCAR-5 36.2 µM | DMS-273 18.2 µM | LXFL 529 29.6 µM | IGROV-1 34.5 µM | M19-MEL 18.7 µM | KM12 96.6 µM | NCI-H23 76.2 µM | K562 26.2 µM | RXF 393 37 µM | SF-268 19.7 µM | OVCAR-3 20.5 µM

CC(=O)NC1=C(NC(C)(C)C)C(=O)c2ccccc2C1=O
inactive: TK-10 19.3 µM | SF-539 15.8 µM | CAKI-1 16.1 µM | SW-620 14.1 µM | OVCAR-5 48.1 µM | DMS-273 26.1 µM | LXFL 529 15.2 µM | IGROV-1 30.2 µM | M19-MEL 15.4 µM | KM12 30.3 µM | NCI-H23 18.7 µM | K562 7.19 µM | RXF 393 17.9 µM | SF-268 26.9 µM | OVCAR-3 15.6 µM

Cc1cccc(-n2c(=S)[nH]c3c(sc(=O)n3-c3ccccc3C)c2=O)c1
inactive: SF-539 > 100 µM | CAKI-1 > 100 µM | SW-620 > 100 µM | OVCAR-5 > 100 µM | DMS-273 > 100 µM | LXFL 529 > 100 µM | IGROV-1 > 100 µM | M19-MEL > 100 µM | KM12 > 100 µM | NCI-H23 > 100 µM | K562 > 100 µM | RXF 393 > 100 µM | SF-268 > 100 µM | OVCAR-3 > 100 µM

O=C(N/N=C(\c1nc2ccc(Cl)cc2nc1O)C(O)c1ccccc1Cl)c1ccncc1 (stereo not drawn)
inactive: TK-10 > 100 µM | SF-539 > 100 µM | CAKI-1 > 100 µM | SW-620 > 100 µM | OVCAR-5 > 100 µM | DMS-273 > 100 µM | LXFL 529 > 100 µM | IGROV-1 > 100 µM | M19-MEL > 100 µM | KM12 > 100 µM | NCI-H23 > 100 µM | K562 > 100 µM | RXF 393 > 100 µM | SF-268 > 100 µM | OVCAR-3 > 100 µM

COc1cc2ccc1-c1cc(ccc1O)CC1c3cc4c(cc3CCN1C)Oc1c(OC)cc3c(c1O4)C(C2)N(C)CC3 (stereo not drawn)
inactive: TK-10 12.2 µM | SF-539 1.79 µM | CAKI-1 2.52 µM | SW-620 1.84 µM | OVCAR-5 3.4 µM | DMS-273 1.78 µM | LXFL 529 1.84 µM | IGROV-1 2.17 µM | M19-MEL 1.88 µM | KM12 1.73 µM | NCI-H23 1.99 µM | K562 1.44 µM | RXF 393 1.67 µM | SF-268 1.81 µM | OVCAR-3 1.95 µM
